System: 242566-281-R-J2-PDC complex spheroid viability
Assay: Anticancer human tumor 242566-281-R-J2-PDC patient-derived pancreatic carcinoma cell line growth inhibition [CLK]
Conditions: for IC50: curve of first compound; for viability, T/C: stronger effect = lower value
Summary of the method: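 Patient-derived tumor cells grown as complex spheroids with HUVEC endothelial cells and mesenchymal stem cells, treated with drug combinations. Concentrations descend in half-log steps from near clinical Cmax, or from 10 microM if Cmax unknown.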

[1] = second compound 0.0316 µM, first compound 0.0316 µM
[2] = second compound 0.0316 µM, first compound 0.1 µM
[3] = second compound 0.0316 µM, first compound 0.316 µM
[4] = second compound 0.0316 µM, first compound 1 µM
[5] = second compound 0.1 µM, first compound 0.0316 µM
[6] = second compound 0.1 µM, first compound 0.1 µM
[7] = second compound 0.1 µM, first compound 0.316 µM
[8] = second compound 0.1 µM, first compound 1 µM
[9] = second compound 0.316 µM, first compound 0.0316 µM
[10] = second compound 0.316 µM, first compound 0.1 µM
[11] = second compound 0.316 µM, first compound 0.316 µM
[12] = second compound 0.316 µM, first compound 1 µM
[13] = second compound 1 µM, first compound 0.0316 µM
[14] = second compound 1 µM, first compound 0.1 µM
[15] = second compound 1 µM, first compound 0.316 µM
[16] = second compound 1 µM, first compound 1 µM
[17] = second compound 3.16 µM, first compound 0.0316 µM
[18] = second compound 3.16 µM, first compound 0.1 µM
[19] = second compound 3.16 µM, first compound 0.316 µM
[20] = second compound 3.16 µM, first compound 1 µM
[21] = second compound 10 µM, first compound 0.0316 µM
[22] = second compound 10 µM, first compound 0.1 µM
[23] = second compound 10 µM, first compound 0.316 µM
[24] = second compound 10 µM, first compound 1 µM
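Also: spheroids exposed to compounds for 7 days before readout.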
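For viability, T/C in this document: 100% = DMSO vehicle control wells.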

NC(=O)C(=Cn1cnc(-c2cc(C(F)(F)F)cc(C(F)(F)F)c2)n1)c1cncnc1 + CN1CCN(c2cc(C(=O)Nc3cc4cc(-c5cnn(C)c5)ccc4cn3)ccn2)CC1
IC50 (second compound 0.0316 µM): 978 nM
IC50 (second compound 0.1 µM): 465 nM
IC50 (second compound 0.316 µM): < 9.49 nM
IC50 (second compound 1 µM): < 9.49 nM
IC50 (second compound 3.16 µM): < 9.49 nM
IC50 (second compound 10 µM): < 9.49 nM
viability, T/C (second compound 0.0316 µM, first compound 0.00949 µM): 99.3%
viability, T/C (second compound 0.0316 µM, first compound 0.03 µM): 106%
viability, T/C (second compound 0.0316 µM, first compound 0.0949 µM): 97%
viability, T/C (second compound 0.0316 µM, first compound 0.3 µM): 84.1%
viability, T/C (second compound 0.0316 µM, first compound 0.949 µM): 50.9%
viability, T/C (second compound 0.0316 µM, first compound 3 µM): 19.7%
viability, T/C (second compound 0.1 µM, first compound 0.00949 µM): 92.5%
viability, T/C (second compound 0.1 µM, first compound 0.03 µM): 83.6%
viability, T/C (second compound 0.1 µM, first compound 0.0949 µM): 84.4%
viability, T/C (second compound 0.1 µM, first compound 0.3 µM): 60%
viability, T/C (second compound 0.1 µM, first compound 0.949 µM): 31.7%
viability, T/C (second compound 0.1 µM, first compound 3 µM): 7.32%
viability, T/C (second compound 0.316 µM, first compound 0.00949 µM): 29.2%
viability, T/C (second compound 0.316 µM, first compound 0.03 µM): 16.8%
viability, T/C (second compound 0.316 µM, first compound 0.0949 µM): 6.44%
viability, T/C (second compound 0.316 µM, first compound 0.3 µM): 3.56%
viability, T/C (second compound 0.316 µM, first compound 0.949 µM): 3.41%
viability, T/C (second compound 0.316 µM, first compound 3 µM): 4.67%
viability, T/C (second compound 1 µM, first compound 0.00949 µM): 3.11%
viability, T/C (second compound 1 µM, first compound 0.03 µM): 4.63%
viability, T/C (second compound 1 µM, first compound 0.0949 µM): 6.18%
viability, T/C (second compound 1 µM, first compound 0.3 µM): 6.13%
viability, T/C (second compound 1 µM, first compound 0.949 µM): 6.09%
viability, T/C (second compound 1 µM, first compound 3 µM): 5.22%
viability, T/C (second compound 3.16 µM, first compound 0.00949 µM): 5.89%
viability, T/C (second compound 3.16 µM, first compound 0.03 µM): 6.16%
viability, T/C (second compound 3.16 µM, first compound 0.0949 µM): 8.1%
viability, T/C (second compound 3.16 µM, first compound 0.3 µM): 7.76%
viability, T/C (second compound 3.16 µM, first compound 0.949 µM): 7.74%
viability, T/C (second compound 3.16 µM, first compound 3 µM): 6.2%
viability, T/C (second compound 10 µM, first compound 0.00949 µM): 1.11%
viability, T/C (second compound 10 µM, first compound 0.03 µM): 1.56%
viability, T/C (second compound 10 µM, first compound 0.0949 µM): 0.89%
viability, T/C (second compound 10 µM, first compound 0.3 µM): 1.02%
viability, T/C (second compound 10 µM, first compound 0.949 µM): 0.68%
viability, T/C (second compound 10 µM, first compound 3 µM): 0.27%

Nc1ccn(C2OC(CO)C(O)C2(F)F)c(=O)n1 (stereo unspecified) + CN1CCN(c2cc(C(=O)Nc3cc4cc(-c5cnn(C)c5)ccc4cn3)ccn2)CC1
IC50 (second compound 0.0316 µM): < 31.6 nM
IC50 (second compound 0.1 µM): < 31.6 nM
IC50 (second compound 0.316 µM): < 31.6 nM
IC50 (second compound 1 µM): < 31.6 nM
IC50 (second compound 3.16 µM): < 31.6 nM
IC50 (second compound 10 µM): < 31.6 nM
viability, T/C [1]: 46.6%
viability, T/C [2]: 20.6%
viability, T/C [3]: 10.6%
viability, T/C [4]: 13.3%
viability, T/C (second compound 0.0316 µM, first compound 3.16 µM): 8.86%
viability, T/C (second compound 0.0316 µM, first compound 10 µM): 6.79%
viability, T/C [5]: 48.6%
viability, T/C [6]: 15.4%
viability, T/C [7]: 10.2%
viability, T/C [8]: 6.87%
viability, T/C (second compound 0.1 µM, first compound 3.16 µM): 6.64%
viability, T/C (second compound 0.1 µM, first compound 10 µM): 5.01%
viability, T/C [9]: 23.9%
viability, T/C [10]: 15.3%
viability, T/C [11]: 10.9%
viability, T/C [12]: 4.57%
viability, T/C (second compound 0.316 µM, first compound 3.16 µM): 4.57%
viability, T/C (second compound 0.316 µM, first compound 10 µM): 3.01%
viability, T/C [13]: 4.38%
viability, T/C [14]: 4.08%
viability, T/C [15]: 3.98%
viability, T/C [16]: 4.09%
viability, T/C (second compound 1 µM, first compound 3.16 µM): 4.15%
viability, T/C (second compound 1 µM, first compound 10 µM): 3.45%
viability, T/C [17]: 7.21%
viability, T/C [18]: 6.5%
viability, T/C [19]: 5.9%
viability, T/C [20]: 5.48%
viability, T/C (second compound 3.16 µM, first compound 3.16 µM): 5.49%
viability, T/C (second compound 3.16 µM, first compound 10 µM): 5.8%
viability, T/C [21]: 1.62%
viability, T/C [22]: 1.77%
viability, T/C [23]: 1.12%
viability, T/C [24]: 1.8%
viability, T/C (second compound 10 µM, first compound 3.16 µM): 1.55%
viability, T/C (second compound 10 µM, first compound 10 µM): 1.05%

COc1c(OCCCN2CCOCC2)ccc2c3n(c(=NC(=O)c4cnc(N)nc4)nc12)CCN3 + CN1CCN(c2cc(C(=O)Nc3cc4cc(-c5cnn(C)c5)ccc4cn3)ccn2)CC1
IC50 (second compound 0.0316 µM): 25.5 nM
IC50 (second compound 0.1 µM): 19.4 nM
IC50 (second compound 0.316 µM): < 3.16 nM
IC50 (second compound 1 µM): < 3.16 nM
IC50 (second compound 3.16 µM): < 3.16 nM
IC50 (second compound 10 µM): < 3.16 nM
viability, T/C (second compound 0.0316 µM, first compound 0.00316 µM): 91%
viability, T/C (second compound 0.0316 µM, first compound 0.01 µM): 74.5%
viability, T/C [1]: 43.5%
viability, T/C [2]: 22.1%
viability, T/C [3]: 12.3%
viability, T/C [4]: 7.95%
viability, T/C (second compound 0.1 µM, first compound 0.00316 µM): 85.6%
viability, T/C (second compound 0.1 µM, first compound 0.01 µM): 69.5%
viability, T/C [5]: 34.6%
viability, T/C [6]: 18.1%
viability, T/C [7]: 9.35%
viability, T/C [8]: 6.4%
viability, T/C (second compound 0.316 µM, first compound 0.00316 µM): 34%
viability, T/C (second compound 0.316 µM, first compound 0.01 µM): 28.9%
viability, T/C [9]: 17.4%
viability, T/C [10]: 6.56%
viability, T/C [11]: 4.83%
viability, T/C [12]: 5.47%
viability, T/C (second compound 1 µM, first compound 0.00316 µM): 3.43%
viability, T/C (second compound 1 µM, first compound 0.01 µM): 3.63%
viability, T/C [13]: 3.24%
viability, T/C [14]: 2%
viability, T/C [15]: 1.83%
viability, T/C [16]: 1.24%
viability, T/C (second compound 3.16 µM, first compound 0.00316 µM): 6.71%
viability, T/C (second compound 3.16 µM, first compound 0.01 µM): 6.19%
viability, T/C [17]: 5.45%
viability, T/C [18]: 3.96%
viability, T/C [19]: 3.56%
viability, T/C [20]: 2.53%
viability, T/C (second compound 10 µM, first compound 0.00316 µM): 2.33%
viability, T/C (second compound 10 µM, first compound 0.01 µM): 2.32%
viability, T/C [21]: 1.35%
viability, T/C [22]: 1.56%
viability, T/C [23]: 1.19%
viability, T/C [24]: 1.26%
